Assay results reported in patent US20110076768A1, “METHOD FOR DETECTING CARCINOMA AND AGENT FOR SUPPRESSING CARCINOMA” (priority 2008, published 2011).

System: miR-34b, miR-132, miR-137, miR-193a, and miR-203 genes in oral squamous-cell carcinoma cell lines
Assay: Real-time RT-PCR of candidate miRNA gene expression after treatment with demethylating reagent
Format: cell-based
Description: The miRNA expression levels were compared in terms of relative value based on the RNU6B expression level as an internal control. Stars represent 21 types of miRNA genes located on or around the CpG islands. […] A bar graph representing each cell line represents a comparison of expression levels in the RT7 cells and in each cell line. […] A bar graph representing each cell line indicates a comparison of expression levels in untreated cells and in treated cells. […] Asterisks (*) represent a frequency of oral squamous-cell carcinoma cell lines in which recovery of candidate miRNA expression (expression levels of more than 1.5-fold) was observed by comparing untreated cells with cells that have been treated with 10 μM 5-aza-dCyd.
In order to inspect whether or not expression of these 5 types of miRNA genes was suppressed by DNA methylation, oral squamous-cell carcinoma cell lines in which these 5 types of miRNA genes had not been expressed were treated with 1 μM and 10 μM demethylating reagents (5-aza-dCyd) for 5 days. RNA was extracted from these cell lines and expression of candidate miRNA genes was inspected via real-time RT-PCR (FIG. 1D).

Nc1ncn([C@H]2C[C@H](O)[C@@H](CO)O2)c(=O)n1 [5-aza-dCyd, 5-aza-2′-deoxycytidine]
recovery of candidate miRNA gene expression (1 μM and 10 μM for 5 days, OSCC cell lines in which the 5 miRNA genes had not been expressed): expression of these genes was found to be recovered
demethylation of CpG islands near the miRNA genes (oral squamous-cell carcinoma cells cultured in the presence of the demethylating reagent): possible to demethylate such CpG islands
